Publication PMC5218480 (PLoS ONE, 2017)

Tested on: MV-4-11 cells
Assay: Gene expression microarray analysis (Affymetrix PrimeView) and GSEA
Format: cell-based, human
Set-up: RFU PODN (11730768_x_at) / Fold change /veh PODN (11730768_x_at) / RFU LINC00158 (11744669_a_at) / Fold change /veh LINC00158 (11744669_a_at) / RFU DUSP10 (11751237_a_at) / Fold change /veh DUSP10 (11751237_a_at) / RFU ID3 (11757404_x_at) / Fold change /veh ID3 (11757404_x_at) / RFU PLEKHG5 (11737974_s_at) / Fold change /veh PLEKHG5 (11737974_s_at) / RFU LRRC4B (11730491_at) / Fold change /veh LRRC4B (11730491_at) / RFU GIMAP4 (11747438_a_at) / Fold change /veh GIMAP4 (11747438_a_at) / RFU KRT8 (11758183_x_at) / Fold change /veh KRT8 (11758183_x_at) / RFU CNN1 (11734310_a_at) / Fold change /veh CNN1 (11734310_a_at) / RFU VPS37D (11726825_at) / Fold change /veh VPS37D (11726825_at) / RFU C10orf10 (11716522_x_at) / Fold change /veh C10orf10 (11716522_x_at) / RFU KIR2DL2 /// KIR2DL4 /// KIR2DL5A /// KIR2DL5B /// KIR2DS1 /// KIR2DS2 /// KIR2DS3 /// KIR2DS4 /// KIR3DL3 /// KIR3DL3 /// KIR3DS1 (11738374_at) / Fold change /veh KIR2DL2 /// KIR2DL4 /// KIR2DL5A /// KIR2DL5B /// KIR2DS1 /// KIR2DS2 /// KIR2DS3 /// KIR2DS4 /// KIR3DL3 /// KIR3DL3 /// KIR3DS1 (11738374_at) / RFU C1QL1 (11718748_at) / Fold change /veh C1QL1 (11718748_at) / RFU TMPRSS4 (11747572_a_at) / Fold change /veh TMPRSS4 (11747572_a_at) / RFU HAMP (11756126_x_at) / Fold change /veh HAMP (11756126_x_at) / RFU RNFT2 (11725882_a_at) / Fold change /veh RNFT2 (11725882_a_at) / RFU NR4A2 (11747474_a_at) / Fold change /veh NR4A2 (11747474_a_at) / RFU ABCC12 (11746883_a_at) / Fold change /veh ABCC12 (11746883_a_at) / RFU TMEM136 (11760407_x_at) / Fold change /veh TMEM136 (11760407_x_at) / RFU CLDN22 /// WWC2 (11732394_at) / Fold change /veh CLDN22 /// WWC2 (11732394_at) / RFU HLA-DPB1 (11760878_x_at) / Fold change /veh HLA-DPB1 (11760878_x_at) / RFU SPINT1 (11716480_a_at) / Fold change /veh SPINT1 (11716480_a_at) / RFU GAP43 (11754022_s_at) / Fold change /veh GAP43 (11754022_s_at) / RFU A4GNT (11735810_at) / Fold change /veh A4GNT (11735810_at) / RFU PRB3 (11715151_x_at) / Fold change /veh PRB3 (11715151_x_at) / RFU TUBB4B (11761932_at) / Fold change /veh TUBB4B (11761932_at) / RFU CAPN14 (11732068_a_at) / Fold change /veh CAPN14 (11732068_a_at) / RFU TMCC2 (11721928_a_at) / Fold change /veh TMCC2 (11721928_a_at) / RFU IRGQ (11745062_a_at) / Fold change /veh IRGQ (11745062_a_at) / RFU FAM174B (11720279_a_at) / Fold change /veh FAM174B (11720279_a_at) / RFU TMPRSS4 (11748680_a_at) / Fold change /veh TMPRSS4 (11748680_a_at) / RFU FAM212B (11763350_a_at) / Fold change /veh FAM212B (11763350_a_at) / RFU PLEKHG5 (11743358_a_at) / Fold change /veh PLEKHG5 (11743358_a_at) / RFU ZSCAN30 (11745921_a_at) / Fold change /veh ZSCAN30 (11745921_a_at) / RFU CMKLR1 (11741424_a_at) / Fold change /veh CMKLR1 (11741424_a_at) / RFU LOC101060620 /// MAPK8IP1 (11723275_at) / Fold change /veh LOC101060620 /// MAPK8IP1 (11723275_at) / RFU SPTSSB (11747773_x_at) / Fold change /veh SPTSSB (11747773_x_at) / RFU PRSS12 (11739890_at) / Fold change /veh PRSS12 (11739890_at) / RFU BIN1 (11741810_x_at) / Fold change /veh BIN1 (11741810_x_at) / RFU WNT11 (11732464_a_at) / Fold change /veh WNT11 (11732464_a_at) / RFU C10orf10 (11716521_a_at) / Fold change /veh C10orf10 (11716521_a_at) / RFU C5orf56 (11738089_at) / Fold change /veh C5orf56 (11738089_at) / RFU CYB561 (11721691_x_at) / Fold change /veh CYB561 (11721691_x_at) / RFU ANKRD19P (11752326_a_at) / Fold change /veh ANKRD19P (11752326_a_at) / RFU OR2T12 /// OR2T33 /// OR2T8 (11738714_s_at) / Fold change /veh OR2T12 /// OR2T33 /// OR2T8 (11738714_s_at) / RFU VCAN (11748164_a_at) / Fold change /veh VCAN (11748164_a_at) / RFU JSRP1 (11732532_at) / Fold change /veh JSRP1 (11732532_at) / RFU KRTAP10-11 (11738290_x_at) / Fold change /veh KRTAP10-11 (11738290_x_at) / RFU MYO3A (11730013_a_at) / Fold change /veh MYO3A (11730013_a_at) / RFU EBF3 (11725865_a_at) / Fold change /veh EBF3 (11725865_a_at) / RFU CAMK2N1 (11719241_x_at) / Fold change /veh CAMK2N1 (11719241_x_at) / RFU C5orf56 (11738088_a_at) / Fold change /veh C5orf56 (11738088_a_at) / RFU OLFML3 (11715873_a_at) / Fold change /veh OLFML3 (11715873_a_at) / RFU LOC100653217 /// NTM (11731650_a_at) / Fold change /veh LOC100653217 /// NTM (11731650_a_at) / RFU MAPK11 (11762145_a_at) / Fold change /veh MAPK11 (11762145_a_at) / RFU FIZ1 (11724087_x_at) / Fold change /veh FIZ1 (11724087_x_at) / RFU OASL (11726364_x_at) / Fold change /veh OASL (11726364_x_at) / RFU SOX15 (11748057_x_at) / Fold change /veh SOX15 (11748057_x_at) / RFU CD79A (11719716_a_at) / Fold change /veh CD79A (11719716_a_at) / RFU HIST1H1D (11736915_at) / Fold change /veh HIST1H1D (11736915_at) / RFU CASKIN2 (11723855_a_at) / Fold change /veh CASKIN2 (11723855_a_at) / RFU LOC730098 (11760151_x_at) / Fold change /veh LOC730098 (11760151_x_at) / RFU OR4N2 (11742367_at) / Fold change /veh OR4N2 (11742367_at) / RFU PRRT2 (11749266_a_at) / Fold change /veh PRRT2 (11749266_a_at) / RFU SNX32 (11753110_a_at) / Fold change /veh SNX32 (11753110_a_at) / RFU CDHR5 (11726645_a_at) / Fold change /veh CDHR5 (11726645_a_at) / RFU RCAN1 (11760418_a_at) / Fold change /veh RCAN1 (11760418_a_at) / RFU FAM167A (11723789_a_at) / Fold change /veh FAM167A (11723789_a_at) / RFU FAM26E (11764081_at) / Fold change /veh FAM26E (11764081_at) / RFU ISYNA1 (11749810_s_at) / Fold change /veh ISYNA1 (11749810_s_at) / RFU ACY1 (11761880_at) / Fold change /veh ACY1 (11761880_at) / RFU 11764098_at / Fold change /veh 11764098_at / RFU SAMD14 (11745864_x_at) / Fold change /veh SAMD14 (11745864_x_at) / RFU NPB (11741838_a_at) / Fold change /veh NPB (11741838_a_at) / RFU TMPRSS6 (11731388_a_at) / Fold change /veh TMPRSS6 (11731388_a_at) / RFU KRTAP10-2 (11738614_at) / Fold change /veh KRTAP10-2 (11738614_at) / RFU ARHGAP8 /// PRR5-ARHGAP8 (11727945_x_at) / Fold change /veh ARHGAP8 /// PRR5-ARHGAP8 (11727945_x_at) / RFU KRTAP5-7 /// NADSYN1 (11734609_at) / Fold change /veh KRTAP5-7 /// NADSYN1 (11734609_at) / RFU RASL12 (11751679_a_at) / Fold change /veh RASL12 (11751679_a_at) / RFU CDKN2B (11736163_a_at) / Fold change /veh CDKN2B (11736163_a_at) / RFU PRF1 (11729649_at) / Fold change /veh PRF1 (11729649_at) / RFU, ZNF638 /// ZNF638-IT1 / Fold change vs veh, ZNF638 /// ZNF638-IT1 / RFU, PANK3 / Fold change vs veh, PANK3 / RFU, SH3YL1 / Fold change vs veh, SH3YL1 / RFU, ZEB2 / Fold change vs veh, ZEB2 / RFU, NRIP1 / Fold change vs veh, NRIP1 / RFU, PTTG1IP / Fold change vs veh, PTTG1IP / RFU, CAPN2 / Fold change vs veh, CAPN2 / RFU, MED14 / Fold change vs veh, MED14 / RFU, SNORA58 / Fold change vs veh, SNORA58 / RFU, C1orf63 / Fold change vs veh, C1orf63 / RFU, LRRFIP1 / Fold change vs veh, LRRFIP1 / RFU, NDUFAF7 / Fold change vs veh, NDUFAF7 / RFU, SLC12A2 / Fold change vs veh, SLC12A2 / RFU, IBTK / Fold change vs veh, IBTK / RFU, ESF1 / Fold change vs veh, ESF1 / Fold change vs veh, TMEM50B / RFU, TAOK1 / Fold change vs veh, TAOK1 / RFU, ACBD3 / Fold change vs veh, ACBD3 / RFU, TMA16 / Fold change vs veh, TMA16 / RFU, RWDD3 / Fold change vs veh, RWDD3 / RFU, BCAT1 / Fold change vs veh, BCAT1 / RFU, EDEM3 / Fold change vs veh, EDEM3 / RFU, TMEM33 / Fold change vs veh, TMEM33 / RFU, WDR75 / Fold change vs veh, WDR75 / RFU, AHCTF1 / Fold change vs veh, AHCTF1 / RFU, TFRC / Fold change vs veh, TFRC / RFU, ZDHHC17 / Fold change vs veh, ZDHHC17 / RFU, NOM1 / Fold change vs veh, NOM1 / RFU, ARL8B / Fold change vs veh, ARL8B / RFU, ZBTB11 / Fold change vs veh, ZBTB11 / RFU, TAMM41 / Fold change vs veh, TAMM41 / RFU, KIAA1704 /// LOC100996395 / Fold change vs veh, KIAA1704 /// LOC100996395 / RFU, ING1 / Fold change vs veh, ING1 / RFU, TRMT61B / Fold change vs veh, TRMT61B / RFU, FUBP3 / Fold change vs veh, FUBP3 / RFU, TP53 / Fold change vs veh, TP53 / RFU, TNKS2 / Fold change vs veh, TNKS2 / RFU, ZFP14 / Fold change vs veh, ZFP14 / RFU, ACTR2 / Fold change vs veh, ACTR2 / RFU, PPP3R1 / Fold change vs veh, PPP3R1 / RFU, PIK3R1 / Fold change vs veh, PIK3R1 / RFU, HNRNPA1 / Fold change vs veh, HNRNPA1 / RFU, RNF170 / Fold change vs veh, RNF170 / RFU, ZNF28 / Fold change vs veh, ZNF28 / RFU, RNGTT / Fold change vs veh, RNGTT / RFU, OGT / Fold change vs veh, OGT / RFU, BRD1 / Fold change vs veh, BRD1 / RFU, MARS / Fold change vs veh, MARS / RFU, ZNF655 / Fold change vs veh, ZNF655 / RFU, FAHD1 / Fold change vs veh, FAHD1 / RFU, BDP1 / Fold change vs veh, BDP1 / RFU, LRRCC1 / Fold change vs veh, LRRCC1 / RFU, ARID1A / Fold change vs veh, ARID1A / RFU, ZNF146 / Fold change vs veh, ZNF146 / RFU, ZNF330 / Fold change vs veh, ZNF330 / RFU, GPN3 / Fold change vs veh, GPN3 / RFU, C9orf123 / Fold change vs veh, C9orf123 / RFU, N4BP2L2 / Fold change vs veh, N4BP2L2 / RFU, ARFIP1 / Fold change vs veh, ARFIP1 / RFU, FAM179B / Fold change vs veh, FAM179B / RFU, BCL10 / Fold change vs veh, BCL10 / RFU, UHRF1BP1L / Fold change vs veh, UHRF1BP1L / RFU, BET1 / Fold change vs veh, BET1 / RFU, CNOT2 / Fold change vs veh, CNOT2 / RFU, ZNF268 / Fold change vs veh, ZNF268 / Fold change vs veh, ZNF507 / RFU, DGCR2 / Fold change vs veh, DGCR2 / RFU, WDSUB1 / Fold change vs veh, WDSUB1 / Fold change vs veh, HSP90B1 /// MIR3652 / RFU, ADSS / Fold change vs veh, ADSS / RFU, GK / Fold change vs veh, GK / RFU, ZNF148 / Fold change vs veh, ZNF148 / RFU, TAF9 / Fold change vs veh, TAF9 / RFU, SLC1A5 / Fold change vs veh, SLC1A5 / RFU, SLMO2 / Fold change vs veh, SLMO2 / RFU, ABCC4 / Fold change vs veh, ABCC4 / RFU, LOC101060439 /// RAP1B / Fold change vs veh, LOC101060439 /// RAP1B / RFU, RFX7 / Fold change vs veh, RFX7 / RFU, GTPBP10 / Fold change vs veh, GTPBP10 / RFU, CNEP1R1 / Fold change vs veh, CNEP1R1 / RFU, BIVM-ERCC5 /// ERCC5 / Fold change vs veh, BIVM-ERCC5 /// ERCC5 / RFU, ILF3 / Fold change vs veh, ILF3 / RFU 11762660_at / Fold change /veh 11762660_at / RFU VCAN (11757783_s_at) / Fold change /veh VCAN (11757783_s_at) / RFU DDX43 (11728927_at) / Fold change /veh DDX43 (11728927_at) / RFU KRT8 (11758188_x_at) / Fold change /veh KRT8 (11758188_x_at) / RFU NKD1 (11759106_at) / Fold change /veh NKD1 (11759106_at) / RFU SRD5A1 (11742802_a_at) / Fold change /veh SRD5A1 (11742802_a_at) / RFU TPSAB1 /// TPSB2 (11721975_s_at) / Fold change /veh TPSAB1 /// TPSB2 (11721975_s_at) / RFU GSTM3 (11746129_a_at) / Fold change /veh GSTM3 (11746129_a_at) / RFU IL23R (11737362_x_at) / Fold change /veh IL23R (11737362_x_at) / RFU TMEM51 (11727254_a_at) / Fold change /veh TMEM51 (11727254_a_at) / RFU PIWIL2 (11732686_x_at) / Fold change /veh PIWIL2 (11732686_x_at) / RFU ORM1 (11744905_x_at) / Fold change /veh ORM1 (11744905_x_at) / RFU CCDC152 (11743942_at) / Fold change /veh CCDC152 (11743942_at) / RFU ECM1 (11717891_a_at) / Fold change /veh ECM1 (11717891_a_at) / RFU IL23R (11748794_a_at) / Fold change /veh IL23R (11748794_a_at) / RFU TNFAIP8L3 (11732012_x_at) / Fold change /veh TNFAIP8L3 (11732012_x_at) / RFU MBOAT4 (11741988_at) / Fold change /veh MBOAT4 (11741988_at) / RFU 11764193_at / Fold change /veh 11764193_at / RFU TMEM53 (11763286_at) / Fold change /veh TMEM53 (11763286_at) / RFU MAGEB2 (11727129_at) / Fold change /veh MAGEB2 (11727129_at) / RFU TMEM200A (11744735_a_at) / Fold change /veh TMEM200A (11744735_a_at) / RFU CCDC152 (11751479_a_at) / Fold change /veh CCDC152 (11751479_a_at) / RFU FAM211A (11726209_a_at) / Fold change /veh FAM211A (11726209_a_at) / RFU RGS16 (11746705_a_at) / Fold change /veh RGS16 (11746705_a_at) / RFU VCAN (11755009_s_at) / Fold change /veh VCAN (11755009_s_at) / RFU RHOB (11743442_s_at) / Fold change /veh RHOB (11743442_s_at) / RFU RGS16 (11720943_a_at) / Fold change /veh RGS16 (11720943_a_at) / RFU RGS16 (11720944_at) / Fold change /veh RGS16 (11720944_at) / RFU, VPS4B / Fold change vs veh, VPS4B / RFU, CREB1 / Fold change vs veh, CREB1 / RFU, DNAJC13 / Fold change vs veh, DNAJC13 / RFU, GNAQ / Fold change vs veh, GNAQ / RFU, CDK5R1 / Fold change vs veh, CDK5R1 / RFU, ZRANB3 / Fold change vs veh, ZRANB3 / RFU, CUL4A / Fold change vs veh, CUL4A / RFU, CCNY / Fold change vs veh, CCNY / RFU, UFL1 / Fold change vs veh, UFL1 / RFU, COG3 / Fold change vs veh, COG3 / RFU, DIAPH2 / Fold change vs veh, DIAPH2 / RFU, SKA2 / Fold change vs veh, SKA2 / RFU, AFF3 / Fold change vs veh, AFF3 / RFU, LMF1 / Fold change vs veh, LMF1 / RFU, IPO11 / Fold change vs veh, IPO11 / RFU, DFFB / Fold change vs veh, DFFB / RFU, FOXP1 / Fold change vs veh, FOXP1 / RFU, CARD8 / Fold change vs veh, CARD8 / RFU, STRN3 / Fold change vs veh, STRN3 / RFU, ADK / Fold change vs veh, ADK / RFU, RASSF2 / Fold change vs veh, RASSF2 / RFU, WIPF1 / Fold change vs veh, WIPF1 / RFU, LARP1B / Fold change vs veh, LARP1B / RFU, RASA1 / Fold change vs veh, RASA1 / RFU, RB1 / Fold change vs veh, RB1 / RFU, PPFIA1 / Fold change vs veh, PPFIA1 / RFU, MAT2A / Fold change vs veh, MAT2A / RFU, CCT5 / Fold change vs veh, CCT5 / RFU, WDR92 / Fold change vs veh, WDR92 / RFU, CUX1 / Fold change vs veh, CUX1 / RFU, TTC7A / Fold change vs veh, TTC7A / RFU, TMEM135 / Fold change vs veh, TMEM135 / RFU, DEPTOR / Fold change vs veh, DEPTOR / RFU, CPM / Fold change vs veh, CPM / RFU, DNAJB6 / Fold change vs veh, DNAJB6 / RFU, CACNA2D3 / Fold change vs veh, CACNA2D3 / RFU, DTX4 / Fold change vs veh, DTX4 / RFU, TFCP2 / Fold change vs veh, TFCP2 / RFU, GMCL1 /// GMCL1P1 / Fold change vs veh, GMCL1 /// GMCL1P1 / RFU, AEBP2 / Fold change vs veh, AEBP2 / RFU, SNHG1 /// SNORD22 /// SNORD25 /// SNORD26 /// SNORD27 /// SNORD28 /// SNORD29 /// SNORD31 / Fold change vs veh, SNHG1 /// SNORD22 /// SNORD25 /// SNORD26 /// SNORD27 /// SNORD28 /// SNORD29 /// SNORD31 / Fold change (Aza/veh), C12orf56 (ProbeSet 11735607_a_at) / Fold change (ACY-1035/veh), C12orf56 (ProbeSet 11735607_a_at) / Fold change (Aza/veh), FGFR1OP (ProbeSet 11751329_s_at) / Fold change (ACY-1035/veh), FGFR1OP (ProbeSet 11751329_s_at) / Fold change (Aza/veh), VPS36 (ProbeSet 11739960_a_at) / Fold change (ACY-1035/veh), VPS36 (ProbeSet 11739960_a_at) / RFU SYPL1 (11715823_x_at) / Fold change /veh SYPL1 (11715823_x_at) / RFU IGFBP7 (11715501_s_at) / Fold change /veh IGFBP7 (11715501_s_at) / RFU REEP3 (11722064_at) / Fold change /veh REEP3 (11722064_at) / RFU IGLL1 (11728026_x_at) / Fold change /veh IGLL1 (11728026_x_at): dose or concentration left out as unconfirmed
Settings: MV-4-11 cells, 48 hours

Nc1ccc(-c2cccs2)cc1NC(=O)c1ccc2c(c1)cc(C1CC1)n2CCN1CCOCC1 [ACY-1035]
RFU WNT11 (11732464_a_at): 8.64 RFU
